Structures are written as SMILES.

In publication PMC9618858, “β-Carboline dimers inhibit the tumor proliferation by the cell cycle arrest of sarcoma through intercalating to Cyclin-A2” (Frontiers in Immunology, 2022) one finds Kd data, which are given here for one compound.

The experiment concerns the target T1, Cyclin-A2 (CCNA2) (Homo sapiens, UniProt P20248).
T1 construct: recombinant human CCNA2 (rCCNA2), GST-tagged expression in BL21 (DE3), tag cleaved
Description: ITC with purified CCNA2; supported by CETSA in MG-63 lysate and co-IP (blocks CCNA2-CDK2). Type of experiment: binding.

T1 sequence (P20248 whole entry): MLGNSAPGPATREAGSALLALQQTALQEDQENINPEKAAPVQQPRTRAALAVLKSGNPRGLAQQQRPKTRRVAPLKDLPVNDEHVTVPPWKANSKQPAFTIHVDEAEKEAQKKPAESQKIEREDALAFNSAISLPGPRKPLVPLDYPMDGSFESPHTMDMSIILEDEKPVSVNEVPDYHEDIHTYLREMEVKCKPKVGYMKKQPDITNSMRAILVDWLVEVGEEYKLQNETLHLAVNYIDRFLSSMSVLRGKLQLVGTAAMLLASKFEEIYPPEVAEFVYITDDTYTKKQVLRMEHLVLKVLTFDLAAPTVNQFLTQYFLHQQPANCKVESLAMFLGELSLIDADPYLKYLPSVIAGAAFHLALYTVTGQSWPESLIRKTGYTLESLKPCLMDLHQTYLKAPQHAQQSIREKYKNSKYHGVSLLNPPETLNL

As for `Cc1ccccc1Cn1c2ccccc2c2cc(C(=O)OCCCCCOC(=O)c3cc4c5ccccc5n(Cc5ccccc5C)c4cn3)ncc21` [Comp1], the Kd stood at 2900 µM.
